Structures can show the parent of a compound that is named as a salt.
What was measured:
[1] = Stability in buffer at various pH values; assay type: physicochemical
Protocol: b) Stability in Buffer at Various pH Values:
0.3 mg of the test substance is weighed into a 2 ml HPLC vial and 0.5 ml of acetonitrile or acetonitrile/DMSO (9:1) is added. The substance is dissolved by putting the sample vessel in an ultrasonic bath for about 10 seconds. Then 0.5 ml of the respective buffer solution is added, and the sample is again treated in the ultrasonic bath.
pH 2: 0.03 mol of citric acid, 0.061 mol of sodium chloride and 0.0082 mol of hydrochoric acid ad 1 liter of water;
pH 4: 1 liter of Millipore water is adjusted to pH 4.0 with 1 N hydrochloric acid;
pH 5: 0.096 mol of citric acid and 0.2 mol of sodium hydroxide ad 1 liter of water;
pH 6: 0.06 mol of citric acid and 0.16 mol of sodium hydroxide ad 1 liter of water;
pH 7.4: 90.0 g of sodium chloride, 13.61 g of potassium dihydrogen phosphate and 83.35 g of 1 N sodium hydroxide solution are made up to 1 liter with water; this solution is then further diluted 1:10 with Millipore water.
pH 8: 0.013 mol of borax and 0.021 mol of hydrochloric acid ad 1 liter of water.
5 μl portions of the test solution are analyzed by HPLC for their content of unchanged test substance, and of parent substance (A) produced, every hour over a period of 24 hours at 37° C. The percentage areas of the appropriate peaks are used for quantification.
The ratios of the peak areas (F) at the respective time points in relation to the peak areas at the starting time are shown in Table 2 for representative exemplary embodiments: […]

[2] = Determination of the solubility in 5% strength aqueous dextrose solution; assay type: physicochemical; conditions: saline or isotonic, thermodynamic from solid, room temperature, 24 h
Protocol: a) Determination of the Solubility:
The test substance is suspended in 5% strength aqueous dextrose solution. This suspension is shaken at room temperature for 24 h. After ultracentrifugation at 224 000 g for 30 min, the supernatant is diluted with DMSO and analysed by HPLC. A two-point calibration plot of the test compound in DMSO is used for quantification.
Agilent 1100 with DAD (G1315A), quat. Pump (G1311A), autosampler CTC HTS PAL, degasser (G1322A) and column thermostat (G1316A); column: Phenomenex Gemini C18, 5 μm, 50 mm×2 mm; temperature: 40° C.; eluent A: water/phosphoric acid pH 2, eluent B: acetonitrile; flow rate: 0.7 ml/min; gradient: 0-0.5 min 85% A, 15% B; ramp 0.5-3 min 10% A, 90% B; 3-3.5 min 10% A, 90% B; ramp 3.5-4 min 85% A, 15% B; 4-5 min 85% A, 15% B.
Agilent 1100 with DAD (G1315A), quat. pump (G1311A), autosampler CTC HTS PAL, degasser (G1322A) and column thermostat (G1316A); column: VDSoptilab Kromasil 100 C18, 3.5 μm, 60 mm×2.1 mm; temperature: 30° C.; eluent A: water+5 ml of perchloric acid/liter, eluent B: acetonitrile; flow rate: 0.75 ml/min; gradient: 0-0.5 min 98% A, 2% B; ramp 0.5-4.5 min 10% A, 90% B; 4.5-6 min 10% A, 90% B; ramp 6.5-6.7 min 98% A, 2% B; 6.7-7.5 min 98% A, 2% B.

[3] = system: heart rate of anesthetized rats; test: Influence on the heart rate of anesthetized rats; assay type: in vivo; conditions: maximum decrease in the first 30 min after i.v. bolus of 100 μg/kg of (A) or equivalent dosages; anesthetized male Wistar rats
Protocol: f) Determination of the Influence on the Heart Rate of Anesthetized Rats:
Male Wistar rats with a body weight above 250 g are employed. In the night before the experiment, the animals receive no feed but still have free access to drinking water. Preparation and investigations are carried out under Trapanal® anesthesia (100 mg/kg i.p.). Injection and infusion take place through a catheter in the jugular vein, and the blood pressure is recorded via a catheter in the femoral artery (transducer: Braun, Melsungen). After the preparation, the animals are connected to a continuous infusion of physiological saline solution to compensate fluid losses. Test substance or placebo solution are administered as bolus after an equilibration time of about 1 h. Heart rate and arterial blood pressure are recorded during the equilibration and over a period of at least 30 min after the bolus injection with the aid of a digital evaluation program.
Table 4 lists the maximum heart rate decrease in the first 30 min after an i.v. bolus of 100 μg/kg of the active substance (A) or of equivalent dosages of representative exemplary embodiments: […]

[4] = i.v. pharmacokinetics in Wistar rats; assay type: in vivo; conditions: after i.v. bolus administration, male Wistar rats
Protocol: d) i.v. Pharmacokinetics in Wistar Rats:
(§1) On the day before administration of the substance, a catheter for obtaining blood is implanted in the jugular vein of the experimental animals (male Wistar rats, body weight 200-250 g) under Isofluran® anesthesia.
(§2) On the day of the experiment, a defined dose of the test substance is administered as solution into the tail vein using a Hamilton® glass syringe (bolus administration, duration of administration <10 s). Blood samples (8-12 time points) are taken through the catheter sequentially over the course of 24 h after administration of the substance. Plasma is obtained by centrifuging the samples in heparinized tubes. Acetonitrile is added to a defined plasma volume per time point to precipitate proteins. After centrifugation, test substance and, where appropriate, known cleavage products of the test substance in the supernatant are determined quantitatively using a suitable LC/MS-MS method.
The measured plasma concentrations are used to calculate pharmacokinetic parameters of the test substance and of the active ingredient compound (A) liberated therefrom, such as AUC, Cmax, T1/2 (half-life) and CL (clearance).

[5] = Oral pharmacokinetics in Wistar rats; assay type: in vivo; conditions: after oral administration by gavage, male Wistar rats
Protocol: e) Oral Pharmacokinetics in Wistar Rats:
as §1
as §2, with “stomach by gavage.” for “tail vein using a Hamilton® glass syringe (bolus administration, duration of administration <10 s).”
The measured plasma concentrations are used to calculate pharmacokinetic parameters of the test substance and of the active ingredient compound (A) liberated therefrom, such as AUC, Cmax, T1/2 (half-life).

Row | SMILES | % test substance after 4 h [F(t = 4 h) × 100/F(t = 0 h)] ([1]; pH 4, 37° C.) [%] | % test substance after 24 h [F(t = 24 h) × 100/F(t = 0 h)] ([1]; pH 4, 37° C.) [%] | % test substance after 4 h [F(t = 4 h) × 100/F(t = 0 h)] ([1]; pH 5, 37° C.) [%] | % test substance after 24 h [F(t = 24 h) × 100/F(t = 0 h)] ([1]; pH 5, 37° C.) [%] | % test substance after 4 h [F(t = 4 h) × 100/F(t = 0 h)] ([1]; pH 6, 37° C.) [%] | % test substance after 24 h [F(t = 24 h) × 100/F(t = 0 h)] ([1]; pH 6, 37° C.) [%] | % test substance after 4 h [F(t = 4 h) × 100/F(t = 0 h)] ([1]; pH 7.4, 37° C.) [%] | % test substance after 24 h [F(t = 24 h) × 100/F(t = 0 h)] ([1]; pH 7.4, 37° C.) [%] | solubility thermodynamic at 24 h [2] [µg/mL] | Heart rate decrease [3] [%] | detectability of test substance in plasma [4] | detectability of test substance in plasma [5] | % test substance after 4 h [F(t = 4 h) × 100/F(t = 0 h)] ([1]; pH 2, 37° C.) [%] | % test substance after 24 h [F(t = 24 h) × 100/F(t = 0 h)] ([1]; pH 2, 37° C.) [%]
1 | C[C@H](NC(=O)[C@@H](N)CCCCN)C(=O)OCCOc1ccc(-c2c(C#N)c(N)nc(SCc3csc(-c4ccc(Cl)cc4)n3)c2C#N)cc1 [Example 4, 2-{4-[2-Amino-6-({[2-(4-chlorophenyl)-1,3-thiazol-4-yl]methyl}thio)-3,5-dicyanopyridin-4-yl]-phenoxy}ethyl L-lysyl-L-alaninate dihydrochloride] | 100 | 100 | 100 | 98 | 97 | 84 | 48 | 2 | > 500 | 19 | no longer detectable in plasma even at the first measurement point | no longer detectable in plasma even at the first measurement point | – | –
2 | N#Cc1c(N)nc(SCc2csc(-c3ccc(Cl)cc3)n2)c(C#N)c1-c1ccc(OCCOC(=O)[C@H](CO)NC(=O)[C@@H](N)CCCCN)cc1 [Example 5, 2-{4-[2-Amino-6-({[2-(4-chlorophenyl)-1,3-thiazol-4-yl]methyl}thio)-3,5-dicyanopyridin-4-yl]-phenoxy}ethyl L-lysyl-L-serinate dihydrochloride] | 100 | 100 | 100 | 98 | 95 | 70 | – | – | > 500 | 12 | no longer detectable in plasma even at the first measurement point | no longer detectable in plasma even at the first measurement point | – | –
3 | N#Cc1c(N)nc(SCc2csc(-c3ccc(Cl)cc3)n2)c(C#N)c1-c1ccc(OCCOC(=O)CC[C@H](N)C(=O)NCCN)cc1 [Example 6, 2-{4-[2-Amino-6-({[2-(4-chlorophenyl)-1,3-thiazol-4-yl]methyl}thio)-3,5-dicyanopyridin-4-yl]-phenoxy}ethyl N-(2-aminoethyl)-L-α-glutaminate dihydrochloride] | 100 | 100 | 96 | 80 | 78 | 25 | 8 | 0 | > 500 | 17 | no longer detectable in plasma even at the first measurement point | no longer detectable in plasma even at the first measurement point | 100 | 100
4 | N#Cc1c(N)nc(SCc2csc(-c3ccc(Cl)cc3)n2)c(C#N)c1-c1ccc(OCCOC(=O)[C@@H](N)CCC(=O)NCCN)cc1 [Example 7, dihydrochloride] | 100 | 98 | – | – | – | – | 51 | 2 | 100 | 15 | no longer detectable in plasma even at the first measurement point | – | – | –
